Measured values as given in EP4733299A1, “SULFUR-CONTAINING FUSED RING COMPOUND, PHARMACEUTICAL COMPOSITION CONTAINING SAME, AND PREPARATION METHOD THEREFOR AND USE THEREOF” (Shenzhen Braegen Pharmaceutical Co., Ltd., priority 2023, dated 2024).

Target: T1, a-Syn aggregates (Homo sapiens, UniProt P37840, A53T)
T1 construct: tissue The Jackson Laboratory 017682; host or cells: brain sections of rotenone-treated transgenic mice
Test: Binding specificity on brain slices of rotenone-treated SNCA transgenic mice
Details: for capture of a-Syn aggregates: brain slices, rotenone-treated SNCA Tg mice, Fig. 2
Description: To further explore whether the positive compounds selectively bind to Lewy bodies, brain slices from mice were used to test the binding specificity assays.
Staining with a-Synuclein protein coding gene (SNCA) transgenic mice (the Jackson Laboratory; stock numbers: 017682) were treated with rotenone (Oral gavage of rotenone under the following protocol: Mice were treated with 0.1 mL/25 g of vehicle containing 1% methylcellulose (Sigma, Catalog No.: M0512) and 1.25% chloroform (Sigma, Catalog No.: 2432) or a solution containing 0.625 mg/mL of rotenone (ULTRA Scientific, Catalog No.: PST-890) with 1% methylcellulose and 1.25% chloroform. We prepared rotenone solution by dissolving rotenone in chloroform and then diluting into 1% methylcellulose solution while mixing vigorously. Rotenone or vehicle control was orally administered with a 1.2 x 60 mm gavage (Unimed, Switzerland) once a day for 5 days/week, consecutively for 3 months.), which contains abundant LB-like inclusions. Furthermore, brain slices from NFT abundant Tau P301S mice and Aβ-enriched 5 x FAD mice were also used separately.
The brain slices were fixed and incubated for 12 h at 4 °C with primary antibodies followed by incubation with Alexa Fluor 568-, Alexa Fluor 488-, or Alexa Fluor 647-conjugated secondary antibodies (Invitrogen) for 3 h at room temperature. Then stained with ThS (Sigma, Catalog No.: T1892) or candidate compounds at room temperature, 4',6-diamidino-2-phenylindole (DAPI, 1 µg/ml) (Sigma-Aldrich) was used for the nuclear staining. The slides were imaged with Olympus FluoView FV1000 confocal laser scanning microscope using Olympus FluoView software to acquire data.

Molecule	capture of a-Syn aggregates	co-localization with aggregates in the brain sections (positive control, mouse brain sections)
COc1cc(/C=C/c2nc3cc(C)c(N(C)CCOCCF)cc3s2)ccc1O [Compound A, (E)-4-(2-(6-((2-(2-fluoroethoxy)ethyl)(methyl)amino)-5-methylbenzo[d]thiazol-2-yl)vinyl)-2-methoxyphenol]	sensitively captured a-Syn aggregates	
COc1cc(/C=C/c2nc3cc(C)c(N(C)CCOCCF)cc3s2)cc(Br)c1O [Compound S, (E)-2-bromo-4-(2-(6-((2-(2-fluoroethoxy)ethyl)(methyl)amino)-5-methylbenzo[d]thiazol-2-yl)vinyl)-6-methoxyphenol]	sensitively captured a-Syn aggregates	
thioflavin-S [ThS, reference compound]		co-localized with all of these aggregates
